Test results taken from US6608051B1, “Compositions and methods for treating blood” (MedPointe Healthcare Inc., priority 1999, dated 2003).

Legend:
[1] = pH of a saturated solution in deionized water; assay type: physicochemical
[2] = stability in the solid state; assay type: physicochemical; details: stored at ambient conditions
[3] = apparent partition coefficient between octanol and water; assay type: physicochemical; details: buffered at pH 7.2
[4] = cited from earlier work
[5] = solubility in aqueous solutions and organic solvents; assay type: physicochemical

SMILES: O=S1(=O)CCN(CN2CCS(=O)(=O)NC2)CN1 [taurolidine, 4,4′-methylenebis(tetrahydro-1,2,4-thiadiazine)-1,1,1′,1′,-tetraoxide]
- pH of a saturated solution [1]: 7.4
- stability in the solid state [2]: acceptable stability
- apparent partition coefficient between octanol and water [3]: approximately 0.13
- cumulative dose shown to be safe and well tolerated ([4]; cumulative doses, up to and exceeding): ≥ 300 g
- systemic dose shown to be safe and well tolerated ([4]; systemic doses): exceeding 40 g/day
- solubility ([5]; CHCl3): insoluble
- solubility ([5]; Dilute HCl): soluble
- solubility ([5]; Dilute NaOH): soluble
- solubility ([5]; EtOH): sparingly soluble
- solubility ([5]; Water, at 20° C.): 1% at 20 °C
